Assay results from US9783552B2, “Soluble guanylate cyclase activators” (MERCK SHARP & DOHME CORP., priority 2013, dated 2017).

Molecular target: T1, sGC α1/β1 heterodimer (Homo sapiens, UniProt Q02108+Q02153)
T1 construct: expressed in transfected cells
T1 sequence (Q02108 1-690): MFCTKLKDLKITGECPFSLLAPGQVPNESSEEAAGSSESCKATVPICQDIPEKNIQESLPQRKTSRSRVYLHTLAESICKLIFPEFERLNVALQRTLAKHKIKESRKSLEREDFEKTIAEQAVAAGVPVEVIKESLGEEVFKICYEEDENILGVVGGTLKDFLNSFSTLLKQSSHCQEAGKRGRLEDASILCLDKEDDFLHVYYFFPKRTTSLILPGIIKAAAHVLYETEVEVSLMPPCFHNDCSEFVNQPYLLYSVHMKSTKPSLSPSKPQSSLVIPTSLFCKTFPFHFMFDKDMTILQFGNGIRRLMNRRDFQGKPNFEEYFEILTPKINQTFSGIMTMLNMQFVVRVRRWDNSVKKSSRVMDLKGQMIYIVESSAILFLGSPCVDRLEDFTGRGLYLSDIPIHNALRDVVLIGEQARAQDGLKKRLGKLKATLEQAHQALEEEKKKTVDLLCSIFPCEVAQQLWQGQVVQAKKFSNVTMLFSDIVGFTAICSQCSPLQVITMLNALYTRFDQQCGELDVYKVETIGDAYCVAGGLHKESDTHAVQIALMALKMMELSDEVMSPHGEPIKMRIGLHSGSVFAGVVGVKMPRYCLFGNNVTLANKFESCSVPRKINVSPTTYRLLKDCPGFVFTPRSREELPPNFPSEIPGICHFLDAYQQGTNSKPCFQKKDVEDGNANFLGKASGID
T1 sequence (Q02153 1-619): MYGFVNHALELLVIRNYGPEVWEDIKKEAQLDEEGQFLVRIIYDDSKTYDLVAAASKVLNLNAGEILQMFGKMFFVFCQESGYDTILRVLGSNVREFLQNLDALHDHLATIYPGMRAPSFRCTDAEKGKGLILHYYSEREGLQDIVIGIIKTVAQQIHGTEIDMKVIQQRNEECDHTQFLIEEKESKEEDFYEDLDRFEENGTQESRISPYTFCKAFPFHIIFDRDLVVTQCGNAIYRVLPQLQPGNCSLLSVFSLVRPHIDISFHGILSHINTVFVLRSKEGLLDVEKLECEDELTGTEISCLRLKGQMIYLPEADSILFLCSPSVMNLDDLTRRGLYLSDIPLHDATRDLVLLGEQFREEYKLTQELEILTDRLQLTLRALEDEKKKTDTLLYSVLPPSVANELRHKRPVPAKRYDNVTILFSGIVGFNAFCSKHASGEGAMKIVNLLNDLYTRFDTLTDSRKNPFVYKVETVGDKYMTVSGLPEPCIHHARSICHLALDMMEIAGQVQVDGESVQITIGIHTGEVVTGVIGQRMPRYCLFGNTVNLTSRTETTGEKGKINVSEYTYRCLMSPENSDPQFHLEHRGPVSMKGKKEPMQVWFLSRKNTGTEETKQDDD
Assay: Cell-Based sGC Functional Assay (CASA Assay)
Conditions: CHO-K1/sGC cells; for EC50: intracellular cGMP by HTRF, 1 hr at 37° C., IP from 4P fit, presence or absence of 1 μM DETA-NO not given; for Emax: cGMP as percentage of maximum cGMP production of Compound A (=100% activation), read-out: % ACT (percent activation)
How it was run: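 cGMP accumulation was quantified by HTRF in stable human sGC α1/β1 CHO-K1 cells after 1 hr at 37 °C with compound, 0.5 mM IBMX and 2.5% DMSO. Runs were done in the presence and absence of 1 μM of the NO donor DETA-NO. Activation was normalised to the reference heme-dependent activator maximum (100%), and a 4P fit gave IP and maximum fold induction.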

| EC50 [nM] | Emax [%] | SMILES |
| --- | --- | --- |
| 44 | 104 | COC1(C)C(=O)Nc2nc(-c3nc(CCC(F)(F)C(F)(F)F)nc4c3cnn4C)nc(N)c21 (single isomer, unassigned) [Example 56, 4-Amino-5-methoxy-5-methyl-2-(1-methyl-6-(3,3,4,4,4-pentafluorobutyl)-1H-pyrazolo[3,4-d]pyrimidin-4-yl)-5H-pyrrolo[2,3-d]pyrimidin-6(7H)-one] |
| 878 | 121 | [2H]C([2H])([2H])n1ncc2c(-c3nc(N)c4c(n3)NC(=O)C4(CC)C(N)=O)nc(CCC(F)(F)C(F)(F)F)nc21 (single isomer, unassigned) [Example 36, 4-Amino-5-ethyl-2-(6-(3,3,4,4,4-pentafluorobutyl)-1-trideuteriomethyl-1H-pyrazolo[3,4-d]pyrimidin-4-yl)-6-oxo-6,7-dihydro-5H-pyrrolo[2,3-d]pyrimidine-5-carboxamide] |
| 113 | 139 | [2H]C([2H])([2H])OC1(C)C(=O)Nc2nc(-c3nc(CCC(F)(F)C(F)(F)F)nc4c3cnn4C)nc(N)c21 (centres unmarked) [Example 57, 4-Amino-5-methyl-5-trideuteriomethoxy-2-(1-methyl-6-(3,3,4,4,4-pentafluorobutyl)-1H-pyrazolo[3,4-d]pyrimidin-4-yl)-5H-pyrrolo[2,3-d]pyrimidin-6(7H)-one] |
| 403 | 107 | [2H]C([2H])([2H])n1nnc2c(-c3nc(N)c4c(n3)NC(=O)C4(C)c3ccccc3)nc(CCC(F)(F)C(F)(F)F)nc21 (single isomer, unassigned) [Example 68, 4-Amino-5-methyl-2-(5-(3,3,4,4,4-pentafluorobutyl-3-trideuteriomethyl)-3H-[1,2,3]triazolo[4,5-d]pyrimidin-7-yl)-5-phenyl-5H-pyrrolo[2,3-d]pyrimidin-6(7H)-one] |
| 614 | 92 | Cn1ncc2c(-c3nc(N)c4c(n3)NC(=O)C4(C)NC(=O)CC3CC3)nc(CCC(F)(F)C(F)(F)F)nc21 (centres unmarked) [Example 52, N-(4-Amino-5-methyl-2-(1-methyl-6-(3,3,4,4,4-pentafluorobutyl)-1H-pyrazolo[3,4-d]pyrimidin-4-yl)-6-oxo-6,7-dihydro-5H-pyrrolo[2,3-d]pyrimidin-5-yl)-2-cyclopropylacetamide] |
| 77 | 100 | [2H]C([2H])([2H])n1ncc2c(-c3nc(N)c4c(n3)NC(=O)C4(C(=O)Nc3ccccn3)C3CC3)nc(CCC(F)(F)C(F)(F)F)nc21 (single isomer, unassigned) [Example 41, 4-Amino-5-cyclopropyl-2-(6-(3,3,4,4,4-pentafluorobutyl)-1-trideuteriomethyl-1H-pyrazolo[3,4-d]pyrimidin-4-yl)-6-oxo-N-(pyridin-2-yl)-6,7-dihydro-5H-pyrrolo[2,3-d]pyrimidine-5-carboxamide] |
| 602 | 98 | CCOC(=O)C1(C2CC2)C(=O)Nc2nc(-c3nc(CCCC(F)(F)F)nc4c3cnn4C)nc(N)c21 (single isomer, unassigned) [Example 27, Ethyl 4-amino-5-cyclopropyl-2-(1-methyl-6-(4,4,4-trifluorobutyl)-1H-pyrazolo[3,4-d]pyrimidin-4-yl)-6-oxo-6,7-dihydro-5H-pyrrolo[2,3-d]pyrimidine-5-carboxylate] |
| 119 | 132 | Cn1ncc2c(-c3nc(N)c4c(n3)NC(=O)C4(C)c3ccccc3)nc(CCCC(F)(F)F)nc21 (single isomer, unassigned) [Example 3, 4-Amino-5-methyl-2-(1-methyl-6-(4,4,4-trifluorobutyl)-1H-pyrazolo[3,4-d]pyrimidin-4-yl)-5-phenyl-5H-pyrrolo[2,3-d]pyrimidin-6(7H)-one] |
| 47 | 106 | [2H]C([2H])([2H])n1ccc2c(-c3nc(N)c4c(n3)NC(=O)C4(C)c3ccccc3)nc(CCC(F)(F)C(F)(F)F)nc21 (single isomer, unassigned) [Example 60, 4-Amino-5-methyl-2′-(3,3,4,4,4-pentafluorobutyl)-5-phenyl-7′-trideuteriomethyl-5H,7′H-[2,4′-bipyrrolo[2,3-d]pyrimidin]-6(7H)-one] |
| 52 | 113 | COc1ccc(C2(C)C(=O)Nc3nc(-c4nc(CCCC(F)(F)F)nc5c4cnn5C)nc(N)c32)cc1F (single isomer, unassigned) [Example 15, 4-Amino-5-(3-fluoro-4-methoxyphenyl)-5-methyl-2-(1-methyl-6-(4,4,4-trifluorobutyl)-1H-pyrazolo[3,4-d]pyrimidin-4-yl)-5H-pyrrolo[2,3-d]pyrimidin-6(7H)-one] |
| 62 | 107 | [2H]C([2H])([2H])n1ncc2c(-c3nc(N)c4c(n3)NC(=O)C4(C(=O)NC3CC3)C(C)C)nc(CCC(F)(F)C(F)(F)F)nc21 (single isomer, unassigned) [Example 35, 4-Amino-N-cyclopropyl-5-isopropyl-2-(6-(3,3,4,4,4-pentafluorobutyl)-1-trideuteriomethyl-1H-pyrazolo[3,4-d]pyrimidin-4-yl)-6-oxo-6,7-dihydro-5N-pyrrolo[2,3-d]pyrimidine-5-carboxamide] |
| 830 | 93 | CCOC(=O)C1(C2CC2)C(=O)Nc2nc(-c3nc(CCC(F)(F)C(F)(F)F)nc4c3cnn4C)nc(N)c21 (single isomer, unassigned) [Example 26, Ethyl 4-amino-5-cyclopropyl-2-(1-methyl-6-(3,3,4,4,4-pentafluorobutyl)-1H-pyrazolo[3,4-d]pyrimidin-4-yl)-6-oxo-6,7-dihydro-5H-pyrrolo[2,3-d]pyrimidine-5-carboxylate] |
| 146 | 121 | Cn1ncc2c(-c3nc(N)c4c(n3)NC(=O)C4(C)c3ccc(F)cc3)nc(CCC(F)(F)F)nc21 (single isomer, unassigned) [Example 11, 4-Amino-5-(4-fluorophenyl)-5-methyl-2-(1-methyl-6-(3,3,3-trifluoropropyl)-1H-pyrazolo[3,4-d]pyrimidin-4-yl)-5H-pyrrolo[2,3-d]pyrimidin-6(7H)-one] |
| 248 | 105 | Cn1ncc2c(-c3nc(N)c4c(n3)NC(=O)C4(C)C#N)nc(CCC(F)(F)C(F)(F)F)nc21 (single isomer, unassigned) [Example 49, 4-Amino-5-methyl-2-(1-methyl-6-(3,3,4,4,4-pentafluorobutyl)-1H-pyrazolo[3,4-d]pyrimidin-4-yl)-6-oxo-6,7-dihydro-5H-pyrrolo[2,3-d]pyrimidine-5-carbonitrile] |
| 87 | 118 | Cn1ncc2c(-c3nc(N)c4c(n3)NC(=O)C4(C)NCC3CC3)nc(CCC(F)(F)C(F)(F)F)nc21 (centres unmarked) [Example 54, 4-Amino-5-((cyclopropylmethyl)amino)-5-methyl-2-(1-methyl-6-(3,3,4,4,4-pentafluorobutyl)-1H-pyrazolo[3,4-d]pyrimidin-4-yl)-5H-pyrrolo[2,3-d]pyrimidin-6(7H)-one] |
| 30 | 95 | [2H]C([2H])([2H])n1ncc2c(-c3nc(N)c4c(n3)NC(=O)C4(C)c3ccc(C#N)cc3)nc(CCC(F)(F)C(F)(F)F)nc21 (single isomer, unassigned) [Example 47, 4-(4-Amino-5-methyl-2-(6-(3,3,4,4,4-pentafluorobutyl)-1-trideuteriomethyl-1H-pyrazolo[3,4-d]pyrimidin-4-yl)-6-oxo-6,7-dihydro-5H-pyrrolo[2,3-d]pyrimidin-5-yl)benzonitrile] |
